The values that follow come from patent US7005431B2, “Imidazo-triazine derivatives as ligands for gaba receptors” (Merck Sharp & Dohme Ltd., priority 2002, dated 2006).

Structures are written as SMILES.

Molecule `CC(C)(O)c1cnn2c(-c3ccc(F)c(-c4c(F)cccc4C#N)c3F)cnc2n1` [Example 2, 3′-[3-(1-Hydroxy-1-methylethyl)imidazo[1,2-b][1,2,4]triazin-7-yl]-6,2′,6′-trifluorobiphenyl-2-carbonitrile] had a melting point of 177 to 179 °C.

Take `CC(C)(F)c1cnn2c(-c3ccc(F)c(-c4ccc(F)cc4C#N)c3F)cnc2n1` [Example 3, 3′-[3-(1-Fluoro-1-methylethyl)imidazo[1,2-b][1,2,4]triazin-7-yl]-4,2′,6′-trifluorobiphenyl-2-carbonitrile]: the melting point lay in the range of 166 to 169 °C.
